Measured values taken from PubChem BioAssay (NCI).
“And” between values parts separate entries of the source, which are not always exact repeats. Identical values can stand only once.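 Where inhibition never reached the appropriate level, the endpoint shown equals the highest concentration tested. Otherwise, values were interpolated linearly from a five-concentration, 48-hour dose response in 96-well plates. Abbreviation: GI50, concentration required for 50% inhibition of growth. Definition used: TGI = concentration required for complete inhibition of growth.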

Experiments:
Assay in all cases: DTP human tumour cell line panel, 48 h
NCI-H226 lung = system: NCI-H226 lung
RPMI-8226 leukemia = system: RPMI-8226 leukemia
UACC-257 melanoma = system: UACC-257 melanoma
SK-MEL-28 melanoma = system: SK-MEL-28 melanoma
NCI-H460 lung = system: NCI-H460 lung
MCF7 breast = system: MCF7 breast
K-562 leukemia = system: K-562 leukemia
ACHN renal = system: ACHN renal
HOP-92 NSCLC = system: HOP-92 NSCLC
TK-10 renal = system: TK-10 renal

Structure (SMILES) | TGI (NCI-H226 lung) | TGI (RPMI-8226 leukemia) | TGI (UACC-257 melanoma) | TGI (SK-MEL-28 melanoma) | TGI (NCI-H460 lung) | TGI (MCF7 breast) | TGI (K-562 leukemia) | TGI (ACHN renal) | TGI (HOP-92 NSCLC) | TGI (TK-10 renal) | GI50 (NCI-H226 lung) [µM] | GI50 (RPMI-8226 leukemia) [µM] | GI50 (UACC-257 melanoma) [µM] | GI50 (SK-MEL-28 melanoma) | GI50 (NCI-H460 lung) [µM] | GI50 (MCF7 breast) [µM] | GI50 (TK-10 renal) [µM] | GI50 (K-562 leukemia) [µM] | GI50 (ACHN renal) [µM] | GI50 (HOP-92 NSCLC)
Clc1ccc(-c2nnc(-c3c(Cl)c(Cl)c(Cl)c(Cl)c3-c3nc4ccccc4[nH]3)o2)cc1 | > 100 µM | > 100 µM | > 100 µM | > 100 µM | > 100 µM | > 100 µM | > 100 µM | > 100 µM | > 100 µM |  |  |  |  |  |  |  |  |  |  | 
O=c1/c(=C/c2ccc([N+](=O)[O-])o2)sc2n1[C@@H](c1ccc3c(c1)OCO3)C=C(c1cc(F)c(Cl)cc1Cl)N=2 | > 100 µM | > 100 µM | 34.8 µM | > 100 µM | 49.8 µM | 32.4 µM | > 100 µM | 33.2 µM | 26.6 µM | 47.8 µM |  |  |  |  |  |  |  |  |  | 
COc1cc2c(cc1OCCCN1CCN(c3ncnc4ccccc34)CC1)N=CC1CCCN1C2=O (stereo not given) | 0.247 µM | 0.0353 µM | 0.737 µM | 0.103 µM | 0.298 µM | 1.02 µM |  | 0.564 µM | 0.0529 µM | 1.08 µM | 0.0348 | < 0.0119 | 0.15 | 0.0336 µM | 0.0282 | 0.0189 | 0.0293 | 0.0262 | 0.0426 | 0.0199 µM
Nc1nc(=O)n(CC(O)CO)s1 (stereo not given) | > 100 µM | > 100 µM | > 100 µM |  | > 100 µM |  | > 100 µM | > 100 µM |  | > 100 µM |  |  |  |  |  |  |  |  |  | 
N#C[S-].[Ce+3].c1cnc2c(c1)ccc1cccnc12.c1cnc2c(c1)ccc1cccnc12.c1cnc2c(c1)ccc1cccnc12 | 8.24 µM | > 100 µM | 18.9 µM | 26.9 µM |  |  | > 100 µM | 11.7 µM | 22.7 µM | 29.9 µM |  |  |  |  |  |  |  |  |  | 
Fc1c(F)c(C(F)(F)F)c(F)c(F)c1N/N=C/c1cn(Cc2ccccc2)c2ccccc12 |  | 62.7 µM | 54 µM | > 100 µM | 27.9 µM | 69.5 µM | 87.1 µM | 81.7 µM | 60.2 µM | 66.4 µM |  |  |  |  |  |  |  |  |  | 
O=C1C[C@H](CCC(=O)OCc2ccccc2)NC(=O)C[C@H](CCC(=O)OCc2ccccc2)NC(=O)C[C@H](CCC(=O)OCc2ccccc2)N1 | > 100 µM | > 100 µM | > 100 µM | > 100 µM | > 100 µM | > 100 µM | > 100 µM | 69.4 µM | 18.8 µM | 25.4 µM |  |  |  |  |  |  |  |  |  | 
C[C@]12CCC(=O)C=C1CC[C@@H]1[C@@H]2[C@@H](O)C[C@@]2(C)[C@H]1CC[C@]2(O)C(=O)COC(=O)C1CCCC1 | > 100 µM | > 100 µM | > 100 µM | > 100 µM | > 100 µM | > 100 µM | > 100 µM | > 100 µM | > 100 µM | > 100 µM |  |  |  |  |  |  |  |  |  | 
CNC(=O)Nc1ccccc1 | > 100 µM | > 100 µM | > 100 µM | > 100 µM | > 100 µM | > 100 µM | > 100 µM | > 100 µM | > 100 µM | > 100 µM |  |  |  |  |  |  |  |  |  | 
CC(=O)C1=C(O)CCC1=O | > 100 µM | > 100 µM | > 100 µM | > 100 µM | > 100 µM | > 100 µM | > 100 µM | > 100 µM | > 100 µM | > 100 µM |  |  |  |  |  |  |  |  |  | 
C[N+](C)(CCO)CCN1c2ccccc2Sc2ccccc21 | > 10 µM | > 10 µM |  | > 10 µM | > 10 µM | > 10 µM | > 10 µM | > 10 µM |  | > 10 µM |  |  |  |  |  |  |  |  |  | 
Cc1nnc2n1N=C(c1cc(F)c(Cl)cc1Cl)/C(=C/c1ccc3c(c1)OCO3)S2 | > 100 µM | > 100 µM | > 100 µM | > 100 µM | > 100 µM | > 100 µM | > 100 µM | > 100 µM | > 100 µM | > 100 µM |  |  |  |  |  |  |  |  |  | 
COc1ccc(C2=NN(C(=O)c3cccnc3)C(O)(c3cc(F)c(Cl)cc3Cl)C2)cc1OC (stereo not given) | 30 µM | 73 µM | 34.2 µM | 54.4 µM | 38.3 µM |  | 69 µM | 57.9 µM | 50.8 µM | > 100 µM |  |  |  |  |  |  |  |  |  | 
COc1ccc(C2C(C=O)C(N3CCN(C)CC3)=Nc3nc4ccccc4n32)cc1 (stereo not given) | 38.2 µM | 17.3 µM | 41 µM | 34.8 µM | 91.1 µM | 36.3 µM | 14.9 µM | 41.8 µM | 24.3 µM | 40 µM |  |  |  |  |  |  |  |  |  | 
NC(CC(=O)O)(Cc1ccccc1)C(=O)O (stereo not given) | > 100 µM | > 100 µM | > 100 µM | > 100 µM | > 100 µM | > 100 µM | > 100 µM | > 100 µM | > 100 µM | > 100 µM |  |  |  |  |  |  |  |  |  | 
O=C(NNC(=O)c1nsc2ccccc12)c1ccc(Cl)cc1 |  | 50.2 µM | 48.2 µM | 36.1 µM | > 100 µM |  | 35.1 µM | > 100 µM | 32.8 µM | 48.9 µM |  |  |  |  |  |  |  |  |  | 
Cc1ccc(SSCCCCCS(=O)O)cc1 |  | 71.4 µM | > 100 µM | > 100 µM | > 100 µM |  | > 100 µM | > 100 µM |  | 75.4 µM |  |  |  |  |  |  |  |  |  | 
COc1ccc(C)cc1Nc1nnc(-c2ccc(N)cc2)s1 | > 100 µM | 98.4 µM | > 100 µM | > 100 µM | > 100 µM | > 100 µM | > 100 µM | > 100 µM | > 100 µM |  |  |  |  |  |  |  |  |  |  | 
CN(C)CCCN1c2ccccc2CCc2cc([N+](=O)[O-])ccc21 | 68 µM and 32.6 µM | 52.6 µM and 41.2 µM | 38 µM and 29.5 µM | 80.9 µM and 28.2 µM | 41.7 µM and 29.8 µM | 79 µM and 31.8 µM | > 100 µM and 38.6 µM | 90.4 µM and 30 µM | 58.1 µM and 22.6 µM | 69 µM and 27.8 µM |  |  |  | 28.2 µM and 13.9 µM |  |  |  |  |  | 21.8 µM and 7.69 µM
CCOC(=O)c1c(CN2CCCC2)n(-c2ccccc2)c2cc(Br)c(OC)cc12 | 35.6 µM | 34 µM | 28.6 µM | 35.3 µM | 35.3 µM | 23.4 µM | 43.3 µM | 35.3 µM | 33.2 µM | 32.5 µM |  |  |  |  |  |  |  |  |  | 
COc1cc2c(cc1OC)-c1cc3ccc(OC)c(OC)c3c[n+]1CC2 | > 100 µM | > 100 µM | > 100 µM | > 100 µM | > 100 µM | > 100 µM | > 100 µM | > 100 µM | > 100 µM | > 100 µM |  |  |  |  |  |  |  |  |  | 
